Measurements taken from US11209420B2, “Cancer diagnostics, therapeutics, and drug discovery associated with macropinocytosis” (New York University, priority 2011, dated 2021).

What was measured:
MIA-Paca-2 cells [1] = assay: TMR-dextran labeling of macropinosomes; assay type: cell-based, human; conditions: MIA-Paca-2, oncogenic K-Ras^G12C
Description: (§1) It was postulated that cancer cells harboring oncogenic Ras mutations would display higher levels of macropinocytosis compared to cancer cells having a non-mutant Ras. For pancreatic cancer cells, macropinocytosis was analyzed in MIA-Paca-2 cells, which are homozygous for the oncogenic K-Ras^G12C allele (Lopez-Crapez et al., “Rapid and Large-Scale Method to Detect K-Ras Gene Mutations in Tumor Samples,” Clin. Chem. 43(6 Pt 1):936-42 (1997) and Pretlow et al., “K-Ras Mutations in Putative Preneoplastic Lesions in Human Colon,” J. Natl. Cancer Inst. 85(24):2004-7 (1993), which are hereby incorporated by reference in their entirety) and BxPc-3 cells that only express wild-type K-Ras (Aoki et al., “Liposome-Mediated in vivo Gene Transfer of Antisense K-Ras Construct Inhibits Pancreatic Tumor Dissemination in the Murine Peritoneal Cavity,” Cancer Res. 55(17):3810-6 (1995), which is hereby incorporated by reference in its entirety). As a bladder model, uptake in T24 and 5637 cells was analyzed. T24 cells are homozygous for the oncogenic H-Ras^V12C allele and 5637 cells only express wild-type H-Ras. […]

[2] = system: HeLa cells expressing HA-H-Ras^V12; assay: High-throughput macropinocytosis assay (TMR-dextran uptake, Arrayscan spot detection); assay type: cell-based, human; conditions: 30 min pre-incubation in serum-free media, then TMR-dextran 30 min; dose-response
Description: To analyze and quantify Ras-stimulated macropinocytosis, a high content screening (HCS)-compatible platform designed for rapid spot analysis was desired. One such platform is the Arrayscan HCS Reader (Cellomics) in conjunction with the Spot Detector BioApplication (Cellomics), which is designed to provide fluorescent- and image-based generic spot analysis for multiple biological applications. As a model cell-based system, a HeLa Tet-Off (HTO) cell line (Clontech) stably transfected with a tetracycline-repressible transgene encoding an oncogenic form of hemagglutinin (HA)-tagged H-Ras (H-Ras^V12) was used. In brief, 2000 cells per well were plated in 384-well plate format in a total volume of 50 μL. To induce expression of H-Ras^V12, cells were plated in media lacking tetracycline, while control cells were plated in 50 ng/mL tetracycline. […] Macropinosomes were analyzed on a cell-to-cell basis using multichannel analysis on the Arrayscan HCS Reader (FIG. 21A). […] A circular spot identification target region (or mask) was then applied for each object on Channel 2, and spots were detected based on their fluorescent intensity, size, and shape. […] To quantify this, the output feature selected for Channel 2 was Spot Count Per Object, which is effectively a measure of total number amount of fluorescent extracellular fluid internalized per cell in a given incubation time. […]

[3] = system: NIH 3T3 [K-Ras^G12V] cells; assay: Intracellular glutamate and α-ketoglutarate levels after albumin supplementation; assay type: cell-based, murine; conditions: complete medium + 2% albumin, 24 hours
Description: Glutamine is a major nutrient for many proliferating cells and is rapidly metabolized to glutamate, then α-ketoglutarate to enter central carbon metabolism. To test whether the favorable effects of albumin supplementation on cell growth were related to glutamine metabolism, the intracellular concentrations of glutamate and α-ketoglutarate in cells grown either in the absence or presence of albumin was measured. NIH 3T3 [K-Ras^G12V] cells were cultured for 24 hours in complete media (CM) supplemented to physiological concentrations of albumin (2 g/100 mL, 2%). As a control, NIH 3T3 [K-Ras^G12V] cells were also cultured in CM alone, which contains minimal levels of albumin (˜0.2%). Cells were lysed and metabolite levels were determined from deproteinized cell lysates. The addition of albumin to the media led to significant increases in intracellular concentrations of both glutamate and α-ketoglutarate (FIG. 20A).

T24 cells [4] = assay: TMR-dextran labeling of macropinosomes; assay type: cell-based; conditions: T24, oncogenic H-Ras
Description: as §1

MIA-Paca-2 cells [5] = assay: FITC-BSA internalization; assay type: cell-based, human
Description: (§2) When added to the growth medium, fluorescently-labeled bovine serum albumin (FITC-BSA) was incorporated into vesicular compartments in oncogenic Ras^V12-expressing HeLa cells (FIG. 6A), MIA-Paca-2, and T24 cells. […] Quantification of FITC-BSA uptake was performed utilizing an amended form of the high-throughput protocol described herein (FIG. 6B). Using colocalization experiments, it was observed that FITC-BSA is internalized with a macropinocytosis marker, dextran (FIG. 7A-7C). To be utilized as a nutrient source, the protein contents of Ras-stimulated macropinosomes must be delivered to a degradative compartment, such as the lysosome. The fate of the macropinosomes was followed via pulse chase experiments and their fusion with lysosomes was monitored by co-staining with lysosomal markers (i.e. Lysotracker). Cells were pulsed with TMR-dextran and incubated with TMR-dextran-free media for varying intervals. At the end of the incubation period, cells were stained with a lysosomal marker and visualized by fluorescent microscopy.

[6] = system: oncogenic Ras^V12-expressing HeLa cells; assay: FITC-BSA internalization; assay type: cell-based, human
Description: as §2

macropinocytosis = conditions: cited from earlier work
[7] = system: oncogenic Ras-transformed cells; assay: Proliferation in low glutamine with physiological albumin; assay type: cell-based; conditions: 0.2 mM glutamine, rescued by increased glutamine or α-ketoglutarate
[8] = system: K-Ras^V12-transformed NIH3T3 cells; assay: High-throughput macropinocytosis assay, amended protocol; assay type: cell-based, murine; conditions: high-throughput quantification
Description: To explore the flexibility of the high-throughput compatible macropinocytosis assay, the HeLa-based Spot Detector BioApplication parameters were amended to quantify macropinocytosis in K-Ras^V12-expressing NIH3T3 cells. To do this, object identification parameters were altered to accommodate larger nuclei and the spot identification target region was adjusted accordingly. Untransformed NIH3T3 cells display low levels of macropinocytosis, compared to K-Ras^V12-transformed cells. Using this amended protocol, it was possible to quantify fluid-phase uptake in these cells and determine that K-Ras^V12-expressing cells have a 3-4 fold increase in macropinocytosis (FIGS. 2A-2B). To examine the effects of macropinocytosis inhibitors, K-Ras^V12-transformed NIH3T3 cells were treated with increasing concentrations of LY294002 or EIPA.

T24 cells [9] = assay: FITC-BSA internalization; assay type: cell-based
Description: as §2

[10] = system: oncogenic Ras^V12-expressing HeLa cells; assay: Survival under glutamine starvation with extracellular albumin; assay type: cell-based, human; conditions: glutamine-free media, low BSA or 2% BSA
Description: If albumin internalization via Ras-stimulated macropinocytosis serves to augment the glutamine supply, then this process should confer a survival and growth advantage under conditions where free glutamine is limiting. To test this prediction, the survival of oncogenic Ras^V12-expressing HeLa cells was tested. […] It was hypothesized that this was due to albumin-derived amino acids that were augmenting the intracellular glutamine supply. It was determined that Ras^V12-survival was enhanced at higher concentrations of extracellular albumin (up to 2%; FIG. 13) and that this survival enhancement was suppressed by EIPA, a macropinocytosis inhibitor (FIGS. 14A-14B).

[11] = cited from earlier work

SMILES	TMR-dextran labeling (macropinocytosis) (MIA-Paca-2 cells [1])	concentration at which maximal inhibition of macropinocytosis occurs [2] [µM]	albumin-dependent increase in intracellular α-ketoglutarate ([3]; 25 mM EIPA)	albumin-dependent increase in intracellular glutamate ([3]; EIPA)	TMR-dextran labeling (macropinocytosis) (T24 cells [4])	FITC-BSA internalization (MIA-Paca-2 cells [5])	FITC-BSA internalization [6]	concentrations at which it exerts its effects on macropinocytosis (macropinocytosis) [µM]	effect on proliferation [7]	effect on macropinocytosis with increasing concentrations [8]	FITC-BSA internalization (T24 cells [9])	survival enhancement by extracellular albumin [10]	solubility in cell culture media [11]
CCN(c1nc(N)c(C(=O)N=C(N)N)nc1Cl)C(C)C [EIPA, 5-N-ethyl-N-isoproamiloride]	inhibited	100	blocked	blocked	inhibited	inhibited	inhibited	50 to 100	anti-proliferative response	dose-response relationship	inhibited	suppressed	soluble in cell culture media
O=c1cc(N2CCOCC2)oc2c(-c3ccccc3)cccc12 [LY294002, 2-(4-morpholinyl)-8-phenyl-4H-1-benzopyran-4]	–	100	–	–	–	–	–	–	–	–	–	–	–
N=C(N)NC(=O)c1nc(Cl)c(N)nc1N [amiloride]	–	–	–	–	–	–	–	1000 to 5000	–	–	–	–	–
